According to patent US20090311237A1, “Combination therapy using a soluble hyaluronidase and a bisphosphonate” (priority 2008, published 2009):

Tests used:
Sprague Dawley rats = assay: Semi-quantitative histopathology of skin at injection site after ID zoledronic acid with or without rHuPH20; type: in vivo; design: key: —: Dash indicates no incidence of the indicated observation; conditions: rat ID; ZA 0.4 mg/mL; rHuPH20 0 U/ml; 4 days
Description: Nine to ten week old female Sprague Dawley rats, having approximate body weight of 200-250 grams, were employed for the study. One day prior to injection, rats were shaved and hair on the back and flank area were removed by Nair® cream (exposure less than 1 min to depilation cream) followed by deep wash with warm tap water. On the day of dosing, all rats were injected intradermally in flank area (one or two injection spots per side), with 0.1 or 0.2 mL as indicated of zoledronic acid solution, with or without rHuPH20, at each corresponding concentration as shown in study design table. Injection site appearance was observed and quantified by blind assessment each day following the injection until the end of the study, at which time animals were sacrificed and the skin around the dosing area as well as a part of the skin that was not effected by the dosing were collected and fixed in 10% neutral buffered formalin (NBF) and further embedded in paraffin, 5 μm sections were cut for H&E stain and histopathology evaluation.
Lesion area was calculated by the following formula: W×L×¼π. Quantitative results were analyzed using one-way analysis of variance (ANOVA) method, followed by Dunnett's comparison method (Prizm 4 program). […] Histopathologic findings were characterized by semi-quantitative analysis of necrosis and infiltration in the skin tissue. […]

[1] = rats; single IV administration of 1.6 mg/kg; cited from earlier work

O=P(O)(O)C(O)(Cn1ccnc1)P(=O)(O)O [ZA, 1-hydroxy-2-(1H-imidazol-1-yl)ethylidene-1,1-bisphosphonic acid]
Necrosis: Superficial dermis (Sprague Dawley rats): — | injection site finding [1]: local irritation at the injection site
